Test results as given in PubChem BioAssay AID330 (DTP/NCI, 2004).
Where “and” joins values, the source holds several entries; their conditions need not be identical. Identical values can stand only once. Inconclusive results and toxic doses are left out. How the source made its calls: active means survival T/C of 150% or more; inactive means T/C below 125% in these data.

Tested on: P388 leukemia ip, CD2F1 mice, survival T/C
Assay: NCI In Vivo Anticancer Drug Screen. Data for tumor model P388 Leukemia (intraperitoneal) in CD2F1 (CDF1) mice
Settings: endpoint: median survival time, higher = longer survival
Outline: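 Mice carrying the transplanted tumor received test compound or vehicle. Survival was recorded in each group, and the value is the treated-group measurement divided by that of the vehicle-treated control group.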

[1] = dose: 50.0 mg/kg/injection, schedule: Q01DX005 (ip), vehicle: saline
[2] = dose: 60.0 mg/kg/injection, schedule: Q01DX005 (ip), vehicle: saline with Tween-80
[3] = dose: 120.0 mg/kg/injection, schedule: Q01DX005 (ip), vehicle: saline with Tween-80
[4] = dose: 240.0 mg/kg/injection, schedule: Q01DX005 (ip), vehicle: saline with Tween-80
[5] = dose: 50.0 mg/kg/injection, schedule: Q01DX005 (ip), vehicle: saline with Tween-80
[6] = dose: 100.0 mg/kg/injection, schedule: Q01DX005 (ip), vehicle: saline with Tween-80
[7] = dose: 200.0 mg/kg/injection, schedule: Q01DX005 (ip), vehicle: saline with Tween-80
[8] = dose: 50.0 mg/kg/injection, schedule: Q01DX009 (ip), vehicle: saline with Tween-80
[9] = dose: 100.0 mg/kg/injection, schedule: Q01DX009 (ip), vehicle: saline with Tween-80
[10] = dose: 25.0 mg/kg/injection, schedule: Q01DX009 (ip), vehicle: Klucel (hydroxypropylcellulose) (HPC)
[11] = dose: 50.0 mg/kg/injection, schedule: Q01DX005 (ip), vehicle: Klucel (hydroxypropylcellulose) (HPC)
[12] = dose: 100.0 mg/kg/injection, schedule: Q01DX005 (ip), vehicle: Klucel (hydroxypropylcellulose) (HPC)
[13] = dose: 200.0 mg/kg/injection, schedule: Q01DX005 (ip), vehicle: Klucel (hydroxypropylcellulose) (HPC)

Measured: T/C

C1CCN2CC3CC(CN4CCCCC34)C2C1 (centres undefined)
inactive: dose: 1.87 mg/kg/injection, schedule: Q01DX005 (ip), vehicle: saline 100 % of control | dose: 3.75 mg/kg/injection, schedule: Q01DX005 (ip), vehicle: saline 101 % of control | dose: 6.2 mg/kg/injection, schedule: Q01DX007 (ip), vehicle: carboxymethylcellulose (CMC) 91 % of control | dose: 7.5 mg/kg/injection, schedule: Q01DX005 (ip), vehicle: saline 102 % of control | dose: 12.5 mg/kg/injection, schedule: Q01DX007 (ip), vehicle: carboxymethylcellulose (CMC) 100 % of control | dose: 15.0 mg/kg/injection, schedule: Q01DX005 (ip), vehicle: saline 100 % of control | dose: 25.0 mg/kg/injection, schedule: Q01DX005 (ip), vehicle: saline 92 % of control | dose: 25.0 mg/kg/injection, schedule: Q01DX007 (ip), vehicle: carboxymethylcellulose (CMC) 91 % of control | [1] 99 % of control

O=C(Nc1cc(Cl)cc(Cl)c1)OCCCl
inactive: [2] 100 % of control | [3] 98 % of control | [4] 91 % of control

CCOc1c(N=Nc2ccc(Cl)cc2)c(C)nn1C(=S)SC
inactive: dose: 7.5 mg/kg/injection, schedule: Q01DX005 (ip), vehicle: Klucel + Tween-80 92 % of control | dose: 15.0 mg/kg/injection, schedule: Q01DX005 (ip), vehicle: Klucel + Tween-80 86 % of control | dose: 30.0 mg/kg/injection, schedule: Q01DX005 (ip), vehicle: Klucel + Tween-80 86 % of control | dose: 60.0 mg/kg/injection, schedule: Q01DX005 (ip), vehicle: Klucel + Tween-80 94 % of control

O=C1C=CC(Nc2cccc([N+](=O)[O-])c2)C1Nc1cccc([N+](=O)[O-])c1 (centres undefined)
inactive: dose: 7.5 mg/kg/injection, schedule: Q01DX005 (ip), vehicle: saline with Tween-80 102 % of control | dose: 15.0 mg/kg/injection, schedule: Q01DX005 (ip), vehicle: saline with Tween-80 90 % of control | dose: 30.0 mg/kg/injection, schedule: Q01DX005 (ip), vehicle: saline with Tween-80 91 % of control | [4] 88 % of control and 92 % of control

N/C(=N\C(=O)OCc1ccccc1)N(CCCC(NC(=O)OCc1ccccc1)C(=O)O)C(=O)OCc1ccccc1 (centres undefined)
inactive: [2] 104 % of control | [3] 87 % of control | [4] 88 % of control

CC(C)=CCCC1(C)C=Cc2c(ccc3c(C)coc23)O1 (centres undefined)
inactive: [5] 97 % of control | [6] 100 % of control | [7] 100 % of control

NC(=O)CSc1nnc2ccccn12
inactive: dose: 50.0 mg/kg/injection, schedule: Q04DX003 (ip), vehicle: saline 92 % of control | dose: 100.0 mg/kg/injection, schedule: Q04DX003 (ip), vehicle: saline 100 % of control | dose: 200.0 mg/kg/injection, schedule: Q04DX003 (ip), vehicle: saline 104 % of control

CN(C)CN1C(=O)CC(c2ccccc2)C1=O (centres undefined)
inactive: [1] 110 % of control | dose: 100.0 mg/kg/injection, schedule: Q01DX005 (ip), vehicle: saline 107 % of control | dose: 200.0 mg/kg/injection, schedule: Q01DX005 (ip), vehicle: saline 115 % of control

Nc1nc(Nc2ccccc2)nc(SCc2ccccc2)n1
inactive: dose: 25.0 mg/kg/injection, schedule: Q01DX009 (ip), vehicle: saline with Tween-80 99 % of control | [8] 90 % of control | [9] 88 % of control

CCOc1ccc(NC(=S)NC2OC(COC(C)=O)C(OC(C)=O)C(OC(C)=O)C2OC(C)=O)cc1 (centres undefined)
inactive: [5] 101 % of control | [6] 91 % of control | [7] 92 % of control

O=C(c1c(F)c(F)c(F)c(F)c1F)n1ccnc1
inactive: dose: 60.0 mg/kg/injection, schedule: Q01DX005 (ip), vehicle: saline 104 % of control | dose: 120.0 mg/kg/injection, schedule: Q01DX005 (ip), vehicle: saline 101 % of control | dose: 240.0 mg/kg/injection, schedule: Q01DX005 (ip), vehicle: saline 87 % of control

CCOC(=O)COc1cc2c(cc1C(C)c1cc(OC)c(OC)c(OC)c1)OCO2 (centres undefined)
inactive: [5] 100 % of control | [6] 105 % of control | [7] 99 % of control

OCC#CCOCC(O)CCl (centres undefined)
inactive: dose: 12.5 mg/kg/injection, schedule: Q01DX009 (ip), vehicle: water 103 % of control | dose: 25.0 mg/kg/injection, schedule: Q01DX009 (ip), vehicle: water 108 % of control | dose: 50.0 mg/kg/injection, schedule: Q01DX009 (ip), vehicle: water 107 % of control | dose: 100.0 mg/kg/injection, schedule: Q01DX009 (ip), vehicle: water 98 % of control | dose: 200.0 mg/kg/injection, schedule: Q01DX009 (ip), vehicle: water 103 % of control

c1ccc(CNc2nc(NCc3ccccc3)c3cn[nH]c3n2)cc1
inactive: [10] 98 % of control | dose: 50.0 mg/kg/injection, schedule: Q01DX009 (ip), vehicle: Klucel (hydroxypropylcellulose) (HPC) 110 % of control | dose: 100.0 mg/kg/injection, schedule: Q01DX009 (ip), vehicle: Klucel (hydroxypropylcellulose) (HPC) 103 % of control | dose: 200.0 mg/kg/injection, schedule: Q01DX009 (ip), vehicle: Klucel (hydroxypropylcellulose) (HPC) 100 % of control

COC1CC2C=CC3C4OC2(/C(C)=C/C(C)C(C(C)O)OC1=O)C3C(O)C(C)C4OC(=O)c1ccc[nH]1 (centres undefined)
inactive: dose: 12.5 mg/kg/injection, schedule: Q01DX005 (ip), vehicle: Klucel (hydroxypropylcellulose) (HPC) 104 % of control | dose: 25.0 mg/kg/injection, schedule: Q01DX005 (ip), vehicle: Klucel (hydroxypropylcellulose) (HPC) 99 % of control | [11] 95 % of control | [12] 99 % of control | [13] 98 % of control

CN1CCC(O)(C(O)(c2ccccc2)c2ccccc2)CC1
inactive: [2] 96 % of control | [3] 100 % of control | [4] 103 % of control

CS/C(=C1/C(=O)N(c2ccccc2)N=C1C)N1CC1
inactive: dose: 6.25 mg/kg/injection, schedule: Q04DX003 (ip), vehicle: Klucel (hydroxypropylcellulose) (HPC) 99 % of control | dose: 12.5 mg/kg/injection, schedule: Q04DX003 (ip), vehicle: Klucel (hydroxypropylcellulose) (HPC) 100 % of control | dose: 25.0 mg/kg/injection, schedule: Q04DX003 (ip), vehicle: Klucel (hydroxypropylcellulose) (HPC) 102 % of control and 109 % of control | dose: 50.0 mg/kg/injection, schedule: Q04DX003 (ip), vehicle: Klucel (hydroxypropylcellulose) (HPC) 90 % of control

COc1ccc2c(c1)[C@@]13CCCC[C@H]1[C@@H](C2)[N+](CC1CC1)=CC3=NO
inactive: [11] 111 % of control | [12] 102 % of control | [13] 105 % of control

c1ccc2c(NC3=NCCO3)c3ccccc3nc2c1
inactive: dose: 3.12 mg/kg/injection, schedule: Q01DX009 (ip), vehicle: Klucel (hydroxypropylcellulose) (HPC) 95 % of control | dose: 6.25 mg/kg/injection, schedule: Q01DX009 (ip), vehicle: Klucel (hydroxypropylcellulose) (HPC) 95 % of control | dose: 12.5 mg/kg/injection, schedule: Q01DX009 (ip), vehicle: Klucel (hydroxypropylcellulose) (HPC) 103 % of control | [10] 111 % of control

C=CCSc1n[nH]c(-c2cccs2)n1
inactive: dose: 30.0 mg/kg/injection, schedule: Q01DX005 (ip), vehicle: Klucel (hydroxypropylcellulose) (HPC) 104 % of control | dose: 60.0 mg/kg/injection, schedule: Q01DX005 (ip), vehicle: Klucel (hydroxypropylcellulose) (HPC) 109 % of control | dose: 120.0 mg/kg/injection, schedule: Q01DX005 (ip), vehicle: Klucel (hydroxypropylcellulose) (HPC) 109 % of control | dose: 240.0 mg/kg/injection, schedule: Q01DX005 (ip), vehicle: Klucel (hydroxypropylcellulose) (HPC) 109 % of control

CSC(=N\N=C\c1c(F)cccc1Cl)/N=C/N(C)C
inactive: [2] 95 % of control | [3] 101 % of control | [4] 103 % of control

C/C(O)=C(/N=Nc1ccccc1)C(=O)O
inactive: [2] 110 % of control | [3] 98 % of control

COc1cc([N+](=O)[O-])c2nc(Cl)ccc2c1[N+](=O)[O-]
inactive: dose: 1.56 mg/kg/injection, schedule: Q01DX009 (ip), vehicle: other 96 % of control | dose: 3.13 mg/kg/injection, schedule: Q01DX009 (ip), vehicle: other 97 % of control | dose: 6.25 mg/kg/injection, schedule: Q01DX009 (ip), vehicle: other 104 % of control | dose: 12.5 mg/kg/injection, schedule: Q01DX009 (ip), vehicle: other 94 % of control | dose: 50.0 mg/kg/injection, schedule: Q01DX009 (ip), vehicle: other 99 % of control

COc1ccc([N+](=O)[O-])cc1NC(=O)N(C)Cc1ccco1
inactive: [8] 103 % of control | [9] 109 % of control | dose: 200.0 mg/kg/injection, schedule: Q01DX009 (ip), vehicle: saline with Tween-80 106 % of control
